Source: PubChem BioAssay AID1259407 (Chemical Carcinogenesis Research Information System (CCRIS), 2018)
Active and inactive are the calls of the source. The rule behind the calls is not given here.

Tested on: CCRIS mutagenicity, Ames/micronucleus/aberration tests
Test: CCRIS mutagenicity studies
[1] = Test System: AMES SALMONELLA TYPHIMURIUM, Strain/Indicator: TA97, Metabolic Activation: NONE, Method: PREINCUBATION
[2] = Test System: AMES SALMONELLA TYPHIMURIUM, Strain/Indicator: TA98, Metabolic Activation: NONE, Method: PREINCUBATION
[3] = Test System: AMES SALMONELLA TYPHIMURIUM, Strain/Indicator: TA1535, Metabolic Activation: NONE, Method: PREINCUBATION
[4] = Test System: AMES SALMONELLA TYPHIMURIUM, Strain/Indicator: TA100, Metabolic Activation: NONE, Method: PREINCUBATION
[5] = Test System: AMES SALMONELLA TYPHIMURIUM, Strain/Indicator: TA100, Metabolic Activation: RAT, LIVER, S-9, AROCLOR 1254 (30%), Method: PREINCUBATION

O[C@H]1[C@H]2O[C@H]2C=C[C@@H]1O
mutagenic call [1]: inactive; negative | mutagenic call [2]: inactive; negative | mutagenic call [3]: active; positive

Clc1c2ccccc2cc2c1ccc1ccccc12
mutagenic call (Test System: AMES SALMONELLA TYPHIMURIUM, Strain/Indicator: TA98, Metabolic Activation: RAT, LIVER, S-9, AROCLOR 1254, Method: STANDARD PLATE): active; positive | mutagenic call (Test System: AMES SALMONELLA TYPHIMURIUM, Strain/Indicator: TA100, Metabolic Activation: RAT, LIVER, S-9, AROCLOR 1254, Method: STANDARD PLATE): active; positive | mutagenic call (Test System: AMES SALMONELLA TYPHIMURIUM, Strain/Indicator: TA100, Metabolic Activation: RAT, LIVER, S-9, PCB, Method: STANDARD PLATE): active; positive

CC(=O)[O-].CC(=O)[O-].O.O.O.O.[Co+2]
mutagenic call (End Point: In vitro chromosomal aberrations, Test System: Chinese hamster lung (CHL/IU) cells, Metabolic Activation: None): active; positive (structural changes) | mutagenic call (End Point: In vitro chromosomal aberrations, Test System: Chinese hamster lung (CHL/IU) cells, Metabolic Activation: Rat, Liver, S9, Phenobarbital and 5,6-benzoflavone): active; positive (structural changes) | mutagenic call (Test System: Ames Salmonella typhimurium, Strain/Indicator: TA98, Metabolic Activation: Rat, Liver, S9, Sodium phenobarbital and 5,6-benzoflavone (10%), Method: Preincubation): inactive; negative | mutagenic call (Test System: Ames Salmonella typhimurium, Strain/Indicator: TA100, Metabolic Activation: Rat, Liver, S9, Sodium phenobarbital and 5,6-benzoflavone (10%), Method: Preincubation): inactive; negative | mutagenic call (Test System: Ames Salmonella typhimurium, Strain/Indicator: TA1535, Metabolic Activation: None, Method: Preincubation): inactive; negative | mutagenic call (Test System: Ames Salmonella typhimurium, Strain/Indicator: TA1535, Metabolic Activation: Rat, Liver, S9, Sodium phenobarbital and 5,6-benzoflavone (10%), Method: Preincubation): inactive; negative | mutagenic call (Test System: Ames Salmonella typhimurium, Strain/Indicator: TA1537, Metabolic Activation: Rat, Liver, S9, Sodium phenobarbital and 5,6-benzoflavone (10%), Method: Preincubation): inactive; negative | mutagenic call (Test System: E. coli, Strain/Indicator: WP2uvrA/pKM101, Metabolic Activation: None, Method: Preincubation): active; positive | mutagenic call (Test System: E. coli, Strain/Indicator: WP2uvrA/pKM101, Metabolic Activation: Rat, Liver, S9, Sodium phenobarbital and 5,6-benzoflavone (10%), Method: Preincubation): inactive; negative

[Cl][Ga]([Cl])[Cl]
mutagenic call [2]: inactive; negative | mutagenic call (Test System: AMES SALMONELLA TYPHIMURIUM, Strain/Indicator: TA98, Metabolic Activation: RAT, LIVER, S-9 (10%), Method: PREINCUBATION): inactive; negative | mutagenic call [4]: inactive; negative | mutagenic call (Test System: AMES SALMONELLA TYPHIMURIUM, Strain/Indicator: TA100, Metabolic Activation: RAT, LIVER, S-9 (10%), Method: PREINCUBATION): inactive; negative

O=S(=O)(O)c1ccccc1
mutagenic call (Test System: AMES SALMONELLA TYPHIMURIUM, Strain/Indicator: TA97, Metabolic Activation: HAMSTER, LIVER, S-9, AROCLOR 1254 (10 OR 30%), Method: PREINCUBATION): inactive; negative | mutagenic call [1]: inactive; negative | mutagenic call (Test System: AMES SALMONELLA TYPHIMURIUM, Strain/Indicator: TA97, Metabolic Activation: RAT, LIVER, S-9, AROCLOR 1254 (10 OR 30%), Method: PREINCUBATION): inactive; negative | mutagenic call (Test System: AMES SALMONELLA TYPHIMURIUM, Strain/Indicator: TA98, Metabolic Activation: HAMSTER, LIVER, S-9, AROCLOR 1254 (10 OR 30%), Method: PREINCUBATION): inactive; negative | mutagenic call [2]: inactive; negative | mutagenic call (Test System: AMES SALMONELLA TYPHIMURIUM, Strain/Indicator: TA98, Metabolic Activation: RAT, LIVER, S-9, AROCLOR 1254 (10 OR 30%), Method: PREINCUBATION): inactive; negative | mutagenic call (Test System: AMES SALMONELLA TYPHIMURIUM, Strain/Indicator: TA100, Metabolic Activation: HAMSTER, LIVER, S-9, AROCLOR 1254 (10 OR 30%), Method: PREINCUBATION): inactive; negative | mutagenic call [4]: inactive; negative | mutagenic call (Test System: AMES SALMONELLA TYPHIMURIUM, Strain/Indicator: TA100, Metabolic Activation: RAT, LIVER, S-9, AROCLOR 1254 (10 OR 30%), Method: PREINCUBATION): inactive; negative | mutagenic call (Test System: AMES SALMONELLA TYPHIMURIUM, Strain/Indicator: TA1535, Metabolic Activation: HAMSTER, LIVER, S-9, AROCLOR 1254 (10 OR 30%), Method: PREINCUBATION): inactive; negative | mutagenic call [3]: inactive; negative | mutagenic call (Test System: AMES SALMONELLA TYPHIMURIUM, Strain/Indicator: TA1535, Metabolic Activation: RAT, LIVER, S-9, AROCLOR 1254 (10 OR 30%), Method: PREINCUBATION): inactive; negative

CN(C)c1nc(N(C)C)nc(N(C)C)n1
mutagenic call [4]: inactive; negative | mutagenic call (Test System: AMES SALMONELLA TYPHIMURIUM, Strain/Indicator: TA100, Metabolic Activation: RAT, LIVER, S-9, AROCLOR 1254 (4 OR 10%), Method: PREINCUBATION): inactive; negative | mutagenic call (Test System: AMES SALMONELLA TYPHIMURIUM, Strain/Indicator: TA100, Metabolic Activation: RAT, LIVER, S-9, AROCLOR 1254 (10%), Method: STANDARD PLATE): inactive; negative | mutagenic call [5]: active; positive

CC(C)(Br)C(=O)O
mutagenic call (End Point: IN VITRO CHROMOSOMAL ABERRATIONS, Test System: CHL CELLS, Metabolic Activation: NONE): active; positive (structural changes) | mutagenic call (End Point: IN VITRO CHROMOSOMAL ABERRATIONS, Test System: CHL CELLS, Metabolic Activation: RAT, LIVER, S-9, SODIUM PHENOBARBITAL AND 5,6-BENZOFLAVONE): active; positive (structural changes)

CC(C)(C)ON=O
mutagenic call [4]: active; positive | mutagenic call (Test System: AMES SALMONELLA TYPHIMURIUM, Strain/Indicator: TA100, Metabolic Activation: RAT, LIVER, S-9, AROCLOR, Method: PREINCUBATION): inactive; negative | mutagenic call (Test System: AMES SALMONELLA TYPHIMURIUM, Strain/Indicator: TA102, Metabolic Activation: NONE, Method: PREINCUBATION): inactive; negative

C1=C\CC/C=C\CC/1.C1=C\CC/C=C\CC/1.[Ni]
mutagenic call (Test System: AMES SALMONELLA TYPHIMURIUM, Strain/Indicator: TA97, Metabolic Activation: HAMSTER, LIVER, S-9, AROCLOR 1254 (10%), Method: PREINCUBATION): inactive; negative | mutagenic call (Test System: AMES SALMONELLA TYPHIMURIUM, Strain/Indicator: TA97, Metabolic Activation: HAMSTER, LIVER, S-9, AROCLOR 1254 (30%), Method: PREINCUBATION): inactive; negative | mutagenic call [1]: inactive; negative | mutagenic call (Test System: AMES SALMONELLA TYPHIMURIUM, Strain/Indicator: TA97, Metabolic Activation: RAT, LIVER, S-9, AROCLOR 1254 (10%), Method: PREINCUBATION): inactive; negative | mutagenic call (Test System: AMES SALMONELLA TYPHIMURIUM, Strain/Indicator: TA97, Metabolic Activation: RAT, LIVER, S-9, AROCLOR 1254 (30%), Method: PREINCUBATION): inactive; negative | mutagenic call (Test System: AMES SALMONELLA TYPHIMURIUM, Strain/Indicator: TA98, Metabolic Activation: HAMSTER, LIVER, S-9, AROCLOR 1254 (10%), Method: PREINCUBATION): inactive; negative | mutagenic call [2]: inactive; negative | mutagenic call (Test System: AMES SALMONELLA TYPHIMURIUM, Strain/Indicator: TA98, Metabolic Activation: RAT, LIVER, S-9, AROCLOR 1254 (10%), Method: PREINCUBATION): inactive; negative | mutagenic call (Test System: AMES SALMONELLA TYPHIMURIUM, Strain/Indicator: TA100, Metabolic Activation: HAMSTER, LIVER, S-9, AROCLOR 1254 (10%), Method: PREINCUBATION): inactive; negative | mutagenic call (Test System: AMES SALMONELLA TYPHIMURIUM, Strain/Indicator: TA100, Metabolic Activation: HAMSTER, LIVER, S-9, AROCLOR 1254 (30%), Method: PREINCUBATION): inactive; negative | mutagenic call [4]: inactive; negative | mutagenic call (Test System: AMES SALMONELLA TYPHIMURIUM, Strain/Indicator: TA100, Metabolic Activation: RAT, LIVER, S-9, AROCLOR 1254 (10%), Method: PREINCUBATION): active; positive | mutagenic call [5]: inactive; negative | mutagenic call (Test System: AMES SALMONELLA TYPHIMURIUM, Strain/Indicator: TA1535, Metabolic Activation: HAMSTER, LIVER, S-9, AROCLOR 1254 (10%), Method: PREINCUBATION): inactive; negative | mutagenic call [3]: inactive; negative | mutagenic call (Test System: AMES SALMONELLA TYPHIMURIUM, Strain/Indicator: TA1535, Metabolic Activation: RAT, LIVER, S-9, AROCLOR 1254 (10%), Method: PREINCUBATION): inactive; negative | mutagenic call (Test System: Ames Salmonella typhimurium, Strain/Indicator: TA100, Metabolic Activation: None, Method: Preincubation): inactive; negative | mutagenic call (Test System: Ames Salmonella typhimurium, Strain/Indicator: TA100, Metabolic Activation: Rat, Liver, S9, Phenobarbital and 5,6-benzoflavone, Method: Preincubation): inactive; negative | mutagenic call (Test System: Ames Salmonella typhimurium, Strain/Indicator: TA102, Metabolic Activation: None, Method: Preincubation): inactive; negative | mutagenic call (Test System: Ames Salmonella typhimurium, Strain/Indicator: TA102, Metabolic Activation: Rat, Liver, S9, Phenobarbital and 5,6-benzoflavone, Method: Preincubation): inactive; negative
